Laboratory results: patent US11571481B2, “Peptide-linked drug delivery system” (priority 2020, dated 2023)
“Also recorded” adds a separate entry of the source. Where a SMILES comes first, the peptide text is derived from it. [ ]: non-standard residue; d: D form. The star is where a group is joined. X1 = COc1cc2cc(c1Cl)N(C)C(=O)C[C@H](OC(=O)[C@H](C)N(C)C(=O)CCS*)[C@]1(C)O[C@H]1[C@H](C)[C@@H]1C[C@@](O)(NC(=O)O1)[C@H](OC)/C=C/C=C(\C)C2; βAla = NCCC(=O)O; Mpa = O=C(O)CCS

What was measured:
[1] = test system: orthotopic human UMUC-3/GFP-Luc bladder tumors; test: Therapeutic efficacy of drug-Bdd conjugates for treating BC (orthotopic xenograft)
Experimental: Therapeutic efficacy of drug-Bdd conjugates for treating BC—Animals were orthotopically implanted with tumors as previously described. Briefly, the urine of 7- to 9-week-old female NSG mice (Jackson Laboratory, Bar Harbor, Me.) was remove through a sterile 24 G pediatric venous catheter (Dublin, Ireland). A trypsin solution (0.125%, 80 μL) was then delivered into the bladder, Subsequently. UMUC-3/GFP-Luc cells (4×10^4 cells) in culture media (50 μL) were transferred into the bladders and allowed for seeding. Tumor progression was monitored by bioluminescence imaging. Luciferin (3 mg) in PBS (100 μL) was given to the animals (via intraperitoneal injection) 15 min prior to performing imaging. […] The therapeutic efficacy was evaluated based on tumor growth inhibition (bioluminescence imaging) and long-term survival.

[2] = Nephrotoxicity studies (urinary NGAL and KIM-1, kidney histology and IHC); type: in vivo, BALB/c mice; settings: for induction of KIM-1 and/or NGAL: i.v., at 3 days
Experimental: The level of the acute renal injury biomarkers, neutrophil gelatinase-associated lipocalin (NGAL) and kidney injury molecule-1 (KIM-1) in the urine samples, were measured using ELISA assays according to the manufacturer's instructions (R&D Systems, Minneapolis, Minn.). […] All the animals (n=3/group) were euthanized at the end of the treatment and the kidneys were collected and fixed in 10% neutral buffered formalin. The tissues were then processed, embedded in paraffin, sectioned, and stained with H&E. Immunohistochemistry (IHC) for kidney injury (NGAL and KIM-1) was also performed.

[3] = Toxicity profile in healthy animals (hematology, serum biochemistry, necropsy); type: in vivo, BALB/c mice; settings: for hematology (red blood cell, leukocyte, platelet counts, morphology) / histopathology of liver, spleen, heart, lungs, kidneys / serum liver enzymes (ALP, ALT, AST) / urea nitrogen/creatinine ratio: DM1, DM1-Bdd 0.75 mg/kg
Source text: At the end of a 3-week treatment, mice were euthanized. The organs/tissues were harvested, fixed in 10% neutral buffered formalin for 2 days. Bones were decalcified in a formic acid solution (Surgipath Decalcifier I; Leica Biosystems, Weltzar, Germany). The samples were then embedded in paraffin, sectioned (5 μm), and stained with H&E for examination by an ACVP board certified anatomic pathologist.
Hematology and biochemistry—Blood samples were collected via cardiac puncture. A complete blood count, including red blood cell, white blood cell, reticulocyte and platelet counts, with an automated differential leukocyte count, was performed using an IDEXX Procyte DX hematology analyzer (iDEXX, Westbrook, Me.). Blood smears were prepared, stained with modified Wright's stain, examined in a blinded fashion by a board-certified veterinary clinical pathologist (T. S.), and imaged using a Nikon Eclipse TE2000-U fluorescent microscope equipped with a photometrics CoolSNAP HQ^2 camera (Nikon Corporation, Tokyo, Japan). The blood was also centrifuged (1,500×G) for 15 min to obtain the serum for biochemical analysis using a Beckman Coulter AU680 analyzer (Beckman Coulter, Brea, Calif.).

[4] = Immunogenicity assay (plasma cytokines by ELISA); type: in vivo, BALB/c mice; settings: 5 mg/kg i.v., 4 h after injection
Experimental: Immunogenicity assay—Female BALB/c mice were treated with a single dose of Bdd or LPS (5 mg/kg) via tail-vein injection (n=3/group). Mice administered with PBS were used as a negative control. Blood samples were collected 4 h later via retro-orbital sinus puncture technique, and the concentration of the innate immune and inflammatory cytokines IL1β, IL2, IL6, IL10, TNF-α, and INF-γ in plasma was measured with commercial sandwich enzyme-linked immunosorbent assay kits. ELISA assays were performed according to the manufacturer's instructions (Invitrogen, Carlsbad, Calif.).

[5] = test system: Renca/GFP-Luc tumors in kidney capsule; test: Evaluation of DM1-Bdd for kidney cancer treatment (syngeneic orthotopic model); type: in vivo, BALB/c mice
Source text: The animals were monitored for tumor growth inhibition and survival as described above. Additional mice were used for histopathological analysis (n=4/group).
Slides were then counterstained with Hematoxylin.

panel of BC cell lines = test: Cell viability and cytotoxicity assay (CellTiter Glo, 72 h); type: cell-based
Experimental: (§1) Cell viability and cytotoxicity assay—Cancer cells (3×10^3/well) were seeded on a flat bottom 96-well plate overnight. […] CellTiter Glo reagent (Promega, Madison, Wis.) was added in each well (50 μL). The luminescence generated was recorded using a microplate reader (Tecan US Inc., Morrisville, N.C.). The dose response curves were plotted, and the half maximal inhibitory concentrations (IC50 values) were calculated using Graph Pad Prism 6.0 software.

Renca = test: as above; type: cell-based, murine
Experimental: as §1

UMUC-3 = test: as above; type: cell-based, human; settings: UMUC-3, 72 h
Experimental: as §1

[6] = set-up: species or system BALB/c mice; settings: mouse, in vivo, iv
Experimental: Pharmacokinetic study—BALB/c mice (Jackson Laboratory, Bar Harbor, Me.) were administered with ^89Zr-peptide or free ^89Zr (20 μCi, 100 μL) via tail-vein injections (n=4/condition). Blood samples (20 μL) were collected at various time intervals, using retro-orbital sinus puncture technique. The radioactivities were measured on Wallac Wizard 2 gamma counter (Perkin-Elmer, Waltham, Mass.). The pharmacokinetic models and parameters of ^89Zr-peptides and free ^89Zr, including the serum half-life and the plasma clearance, were estimated by fitting the data for compartmental model selection using PKSolver 2.0 software.

[7] = μPET/CT imaging and end-point biodistribution study of ^89Zr-peptides; type: in vivo, BALB/c mice
Experimental: μPET/CT imaging and biodistribution study—BALB/c mice were intravenously injected with different ^89Zr-peptide analogues (20 μCi, 100 μL). μPET/CT imaging was performed in animals with and without urine collection prior to the first imaging (n=4/analogue/condition). Whole-body images were acquired 1, 4, and 24 h after injection, using Inveon μPET/CT scanner (Siemens Medical Solutions, Malvern, Pa.). μPET/CT maximum […] projections were processed using Amide v1.0.4 and Inveon Research Workplace software. The radioactivities at different region of interest (ROI) were determined. For end-point biodistribution studies, the mice were euthanized 0.17, 1, 2, 5, and 7 days after treatment with ^89Zr-peptides (n=3/peptide analogue/time point). The radioactivities of the harvested organs were measured using the Wallac Wizard 2 gamma counter. The results were corrected from radioactive decay, and were expressed as a percentage of the injected dose (% ID) or percentage of injected dose per gram of tissue (% ID/g).

[8] = Fluorescence imaging of Cy-peptide analogues (whole body, urine, ex vivo organs); settings: i.v. 0.5 nmol, images 1 and 4 h
Experimental: Fluorescence imaging—Female SHO mice (Charles River Laboratories, Wilmington, Mass.) were administered with free Cyanine5.5 or Cy-peptide analogues (0.5 nmol of Cyanine5.5 content measured by UV absorbance at 680 nm) in a PBS (150 μL) via tail-vein injections (n=4/group). Real-time fluorescence imaging was performed using In vivo Xtreme imaging system (Bruker, Billerica, Mass.). Whole body fluorescence images were acquired 1 and 4 h post injection using the appropriate excitation (670 nm) and emission (750 nm) filters. The animals were then euthanized. The organs were excised to perform ex vivo fluorescence imaging. Imaging was also performed on urine samples (50 μL) collected from separate animals 1 h after i.v. injection of free dye or Cy-peptide analogues (n=4/treatment). Bruker MI software was used to process the fluorescence/bright light images and measure the fluorescence intensity in different ROIs. All the data were corrected to eliminate the organ or fluid auto-fluorescence.

[9] = i.v. 0.75 mg/kg of drug content weekly for 3 weeks
[10] = i.v. weekly for 3 weeks, CIS 10 mg/kg

For COc1cccc2c1C(=O)c1c(O)c3c(c(O)c1C2=O)C[C@@](O)(C(=O)CO)C[C@@H]3O[C@H]1C[C@H](N)[C@H](O)[C@H](C)O1 [DOX, Doxorubicin], which animal survival ([1]; 5 mg/kg of drug content weekly for 3 weeks) is on record?
Its animal survival is “shorter life expectancy compared to the PBS control”.

And the drug-induced mortality ([1]; DOX 5 mg/kg weekly)?
The drug-induced mortality was “died prior to receiving the final dose”.

For COc1cc2cc(c1Cl)N(C)C(=O)C[C@H](OC(=O)[C@H](C)N(C)C(=O)CCSSCCC(=O)NCCC(=O)N[C@H](CC(=O)O)C(=O)N[C@H](CC(=O)O)C(=O)NCCC(=O)N[C@H](CC(=O)O)C(=O)N[C@H](CC(=O)O)C(=O)NCCC(=O)N[C@H](CC(=O)O)C(=O)N[C@H](CC(=O)O)C(=O)NCCC(=O)N[C@H](CC(=O)O)C(=O)N[C@H](CC(=O)O)C(N)=O)[C@]1(C)O[C@H]1[C@H](C)[C@@H]1C[C@@](O)(NC(=O)O1)[C@H](OC)/C=C/C=C(\C)C2 [DM1-Bdd] ([Mpa](X1)[βAla][dD][dD][βAla][dD][dD][βAla][dD][dD][βAla][dD][dD]-NH2), which “immunoreactivity of kidney sections for KIM-1 and NGAL compared to PBS” value ([2]; 3 days after i.v. administration) is on record?
The value was “no elevation of the immunoreactivity”.

And the “histologic examination of kidneys” value ([2]; 3 days after i.v. drug administration, CIS 10 mg/kg, DM1-Bdd 0.75 mg/kg)?
Its value is “did not reveal any abnormalities”.

And the “time for urinary KIM-1 and NGAL to return to basal levels” value ([2]; single i.v. dose 0.75 mg/kg of drug content)?
Its value is ≤ 3 days.

And the “urinary KIM-1 and NGAL levels” value ([2]; single i.v. dose 0.75 mg/kg of drug content, 1 day after injection)?
The value was “slightly increased”.

What about the hepatotoxicity [3, 9] of the same molecule?
The hepatotoxicity was “not hepatotoxic”.

And the “hematology (red blood cell, leukocyte, platelet counts, morphology)” value [3, 10]?
Its value is “did not affect”.

What about the “histopathology of liver, spleen, heart, lungs, kidneys” value [3, 10] of the same molecule?
Its value is “no morphological evidence of injury”.

What about the “serum liver enzymes (ALP, ALT, AST)” value [3, 10] of the same molecule?
The value was “no significant alteration”.

And the urea nitrogen/creatinine ratio [3, 10]?
The urea nitrogen/creatinine ratio was “normal”.

Which “inflammatory cytokine levels (IL-1β, IL-2, IL-6, IL-10, TNF-α, INF-γ) in plasma” value [4] does the source give for NCCC(=O)N[C@H](CC(=O)O)C(=O)N[C@H](CC(=O)O)C(=O)NCCC(=O)N[C@H](CC(=O)O)C(=O)N[C@H](CC(=O)O)C(=O)NCCC(=O)N[C@H](CC(=O)O)C(=O)N[C@H](CC(=O)O)C(=O)NCCC(=O)N[C@H](CC(=O)O)C(=O)N[C@H](CC(=O)O)C(N)=O [Bdd] (HELM PEPTIDE1{[bAla].[dD].[dD].[bAla].[dD].[dD].[bAla].[dD].[dD].[bAla].[dD].[dD].[am]}$$$$V2.0; N-terminus assumed) here?
The value was “no increase”.

What does the source list for COc1cc2cc(c1Cl)N(C)C(=O)C[C@H](OC(=O)[C@H](C)N(C)C(=O)CCS)[C@]1(C)O[C@H]1[C@H](C)[C@@H]1C[C@@](O)(NC(=O)O1)[C@H](OC)/C=C/C=C(\C)C2 [DM1, N2′-deacetyl-N2′-(3-mercapto-1-oxopropyl)-maytansine]?
animal survival compared to i.t. MIT [1, 9]: prolonged animal survival; tumor growth inhibition compared to i.t. MIT [1, 9]: more effective in inhibiting tumor growth; overall survival after 100 days ([1]; i.v. 0.75 mg/kg weekly for 3 weeks): 0%; survival ([5]; either i.v. or i.t., 0.75 mg/kg weekly): died; histological examination of kidneys (tumor) ([5]; one week after completing the treatment course): large and accompanied with an infiltration of mononuclear cells; potency relative to commonly used ITC drugs (MIT, DOX and CIS) (panel of BC cell lines): 100 fold; activity against Renca cell line (Renca): effective; induction of KIM-1 and/or NGAL [2]: continued induction; muscle injury (CK activity) ([3]; i.v. weekly for 3 weeks, DM1 0.75 mg/kg, CIS 10 mg/kg): induced muscle injury; hematology (red blood cell, leukocyte, platelet counts, morphology) [3, 10]: reticulocytosis without apparent anemia; also recorded: inflammatory response characterized by increased proportions of neutrophils, monocytes, and platelets; histopathology of liver, spleen, heart, lungs, kidneys [3, 10]: Increased splenic and hepatic EMH; serum liver enzymes (ALP, ALT, AST) [3, 10]: increases; urea nitrogen/creatinine ratio [3, 10]: increases; IC50 values (UMUC-3): nanomolar (nM) range; potency compared to other conventional chemotherapeutics (UMUC-3): more potent than cisplatin (CIS), doxorubicin (DOX) and mitomycin (MIT), and as effective as gemcitabine (GEM)

For CC(=O)N(O)CCCCCNC(=O)CCC(=O)N(O)CCCCCNC(=O)CCC(=O)N(O)CCCCCNC(=S)Nc1ccc(NC(=S)NCCC(=O)N[C@H](CC(=O)O)C(=O)N[C@H](CC(=O)O)C(=O)NCCC(=O)N[C@H](CC(=O)O)C(=O)N[C@H](CC(=O)O)C(=O)NCCC(=O)N[C@H](CC(=O)O)C(=O)N[C@H](CC(=O)O)C(=O)NCCC(=O)N[C@H](CC(=O)O)C(=O)N[C@H](CC(=O)O)C(N)=O)cc1 [^89Zr-Bdd, metal not drawn] (HELM PEPTIDE1{[CC(=O)N(O)CCCCCNC(=O)CCC(=O)N(O)CCCCCNC(=O)CCC(=O)N(O)CCCCCNC(=S)Nc1ccc(NC(=S)[*:2])cc1].[bAla].[dD].[dD].[bAla].[dD].[dD].[bAla].[dD].[dD].[bAla].[dD].[dD].[am]}$$$$V2.0), which terminal half-life ([6]; BALB/c) is on record?
The terminal half-life was 31.8 min.

What about the plasma clearance [6] of the same molecule?
Its plasma clearance is “rapid”.

And the “time to excretion into the urine after i.v. administration” value ([7]; i.v., confirmed by absence of radioactivity in emptied bladders)?
The value was ≤ 1 h.

And the “ID found in kidneys” value ([7]; mouse, in vivo)?
Its value is 15.1 % ID.

And the “ID found in kidneys after 7 days” value ([7]; mouse, in vivo)?
Its value is 2.1 % ID.

And the “peptide in major organs or blood circulation” value ([7]; mouse, in vivo, iv)?
Its value is “No peptide in major organs or blood circulation was detected”.

For Nc1ccn([C@@H]2O[C@H](CO)[C@@H](O)C2(F)F)c(=O)n1 [GEM, gemcitabine], which “induction of KIM-1 and/or NGAL” value [2] is on record?
The value was “continued induction”.

With Cyanine5.5 as the molecule, how does the “elimination route / main organ uptake by fluorescence imaging” value [8] read?
Its value is “mainly taken up by the liver”.

With CO[C@@]12[C@H](COC(N)=O)C3=C(C(=O)C(C)=C(N)C3=O)N1C[C@@H]1N[C@@H]12 [MIT, Mitomycin] as the molecule, how does the “induction of KIM-1 and/or NGAL” value [2] read?
Its value is “continued induction”.
